# According to ChEMBL document CHEMBL2074165, “Evaluation of an immortalized retinal endothelial cell line as an in vitro model for drug transport studies across the blood-retinal barrier” (Pharm Res, 2003):
# Molecular target: ATP-dependent translocase ABCB1 (Homo sapiens, UniProt P08183)
# Assay: TP_TRANSPORTER: transepithelial transport (basal to apical) of AGN 197075 at a concentration of 10 uM in MDR1-expressing MDCK cells
# Type: functional, cell-based
# Settings: dog
# ATP-dependent translocase ABCB1, sequence (P08183 whole entry): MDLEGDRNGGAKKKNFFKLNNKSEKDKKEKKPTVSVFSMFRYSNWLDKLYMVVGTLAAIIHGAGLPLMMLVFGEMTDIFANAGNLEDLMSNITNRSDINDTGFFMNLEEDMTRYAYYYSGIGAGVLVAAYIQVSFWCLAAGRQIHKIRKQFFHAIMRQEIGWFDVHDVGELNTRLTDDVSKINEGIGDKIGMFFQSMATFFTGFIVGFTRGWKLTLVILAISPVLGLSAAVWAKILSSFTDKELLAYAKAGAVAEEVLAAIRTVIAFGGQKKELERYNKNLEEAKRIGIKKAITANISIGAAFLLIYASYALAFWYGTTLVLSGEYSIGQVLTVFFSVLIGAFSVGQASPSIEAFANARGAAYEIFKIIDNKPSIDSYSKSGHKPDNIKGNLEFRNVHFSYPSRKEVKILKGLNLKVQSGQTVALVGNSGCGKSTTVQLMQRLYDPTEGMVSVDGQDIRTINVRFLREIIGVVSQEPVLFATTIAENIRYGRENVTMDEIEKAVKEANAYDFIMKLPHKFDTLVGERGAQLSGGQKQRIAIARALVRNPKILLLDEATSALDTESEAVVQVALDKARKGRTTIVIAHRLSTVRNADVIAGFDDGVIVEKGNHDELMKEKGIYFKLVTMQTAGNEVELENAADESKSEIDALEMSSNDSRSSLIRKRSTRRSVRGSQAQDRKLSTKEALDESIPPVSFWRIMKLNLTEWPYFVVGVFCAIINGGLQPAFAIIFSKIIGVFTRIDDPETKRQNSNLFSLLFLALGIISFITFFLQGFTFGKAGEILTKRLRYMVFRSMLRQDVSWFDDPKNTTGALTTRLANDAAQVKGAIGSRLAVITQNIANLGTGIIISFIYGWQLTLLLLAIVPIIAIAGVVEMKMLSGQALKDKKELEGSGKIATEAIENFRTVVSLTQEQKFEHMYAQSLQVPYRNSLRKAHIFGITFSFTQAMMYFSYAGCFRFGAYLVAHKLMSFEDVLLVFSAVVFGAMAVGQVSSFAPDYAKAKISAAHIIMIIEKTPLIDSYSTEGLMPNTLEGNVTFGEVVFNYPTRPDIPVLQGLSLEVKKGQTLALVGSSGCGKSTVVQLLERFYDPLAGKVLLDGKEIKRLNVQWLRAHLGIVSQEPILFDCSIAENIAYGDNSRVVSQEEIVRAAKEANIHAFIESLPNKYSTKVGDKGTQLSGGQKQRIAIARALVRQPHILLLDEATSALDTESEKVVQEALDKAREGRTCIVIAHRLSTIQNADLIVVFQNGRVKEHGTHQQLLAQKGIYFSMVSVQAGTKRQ
smiles,measurement,value
OCCNC(=S)NCc1cccc(Cl)c1F,Activity,substrate [+]
